How the values were obtained:
[1] = test system: cocklebur; assay: Test B pre/postemergence cocklebur; format: in vivo, Xanthium strumarium
Method in brief: (§1)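 Test chemicals in a non-phytotoxic solvent mixture with surfactant were sprayed preemergence onto planted seeds and postemergence onto plants 2 to 18 cm tall (1- to 4-leaf stage). After twelve to sixteen days in a greenhouse, injury was visually rated against untreated controls from 0 (no effect) to 10 (complete control).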

[2] = test system: corn; assay: Test B pre/postemergence corn; format: in vivo, Zea mays
Method in brief: as §1

[3] = test system: crabgrass; assay: Test B pre/postemergence crabgrass; format: in vivo, Digitaria sanguinalis
Method in brief: as §1

[4] = test system: giant foxtail; assay: Test B pre/postemergence giant foxtail; format: in vivo, Setaria faberii
Method in brief: as §1

[5] = test system: morningglory; assay: Test B pre/postemergence morningglory; format: in vivo, Ipomoea hederacea
Method in brief: as §1

[6] = test system: pigweed; assay: Test B pre/postemergence pigweed; format: in vivo, Amaranthus retroflexus
Method in brief: as §1

[7] = test system: rape; assay: Test B pre/postemergence rape; format: in vivo, Brassica napus
Method in brief: as §1

[8] = test system: soybean; assay: Test B pre/postemergence soybean; format: in vivo, Glycine max
Method in brief: as §1

[9] = test system: sugar beet; assay: Test B pre/postemergence sugar beet; format: in vivo, Beta vulgaris
Method in brief: as §1

[10] = test system: velvetleaf; assay: Test B pre/postemergence velvetleaf; format: in vivo, Abutilon theophrasti
Method in brief: as §1

[11] = test system: wheat; assay: Test B pre/postemergence wheat; format: in vivo, Triticum aestivum
Method in brief: as §1

[12] = test system: wild oat; assay: Test B pre/postemergence wild oat; format: in vivo, Avena fatua
Method in brief: as §1

[13] = test system: purple nutsedge; assay: Test B pre/postemergence purple nutsedge; format: in vivo, Cyperus rotundus
Method in brief: as §1

[14] = test system: rice; assay: Test B flood test rice; format: in vivo, Oryza sativa
Method in brief: (§2)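 Each value is a visual injury score relative to controls, with 10 meaning complete control and 0 no effect. Evaluation took place twelve to sixteen days after the 2-leaf-stage plants were treated and kept in the greenhouse.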

[15] = test system: duck salad; assay: Test B flood test duck salad; format: in vivo, Heteranthera limosa
Method in brief: as §2

[16] = test system: bamyardgrass; assay: Test B flood test barnyardgrass; format: in vivo, Echinochloa crus-galli
Method in brief: as §2

[17] = Postemergence, Rate 62 g/ha, scale 0 to 10, 0 is no effect, 10 is complete control
[18] = Postemergence, Rate 250 g/ha, scale 0 to 10, 0 no effect, 10 complete control
[19] = Preemergence, Rate 62 g/ha, scale 0 to 10 (0 no effect, 10 complete control)
[20] = Preemergence, Rate 125 g/ha, scale 0 to 10 (0 no effect, 10 complete control)
[21] = Preemergence, Rate 250 g/ha, scale of 0 to 10 where 0 is no effect and 10 is complete control
[22] = Preemergence, Rate 500 g/ha, scale 0 (no effect) to 10 (complete control)
[23] = Rate 125 g/ha, Postemergence, scale 0 to 10, 0 no effect, 10 complete control
[24] = Rate 500 g/ha, Postemergence, scale 0 to 10, 0 no effect, 10 complete control
[25] = Rate 125 g/ha, Postemergence section (flood test species), scale 0 to 10, 0 no effect, 10 complete control
[26] = Rate 500 g/ha, listed under Postemergence (flood test species), scale 0 to 10, 0 no effect, 10 complete control
[27] = flood test, listed under Postemergence, Rate 250 g/ha, scale 0 to 10, 0 no effect, 10 complete control

**Q.** What does the source list for `CCN(C(=O)n1oc(=O)n(Cc2cccs2)c1=O)C1CCCCC1` [Compound 82]?
**A.** Cocklebur plant response rating [1, 17]: 0; Cocklebur plant response rating [1, 18]: 0; Cocklebur plant response rating [1, 19]: 0; Plant response rating, Cocklebur [1, 20]: 0; Plant response rating, Cocklebur [1, 21]: 0; Cocklebur plant response rating [1, 22]: 0; Cocklebur plant response rating [1, 23]: 0; Cocklebur plant response rating [1, 24]: 0; Corn plant response rating [2, 17]: 0; Corn plant response rating [2, 18]: 0; Corn plant response rating [2, 19]: 0; Plant response rating, Corn [2, 20]: 0; Plant response rating, Corn [2, 21]: 0; Corn plant response rating [2, 22]: 0; Corn plant response rating [2, 23]: 0; Corn plant response rating [2, 24]: 0; Crabgrass plant response rating [3, 17]: 0; Crabgrass plant response rating [3, 18]: 0; Crabgrass plant response rating [3, 19]: 0; Plant response rating, Crabgrass [3, 20]: 0; Plant response rating, Crabgrass [3, 21]: 0; Crabgrass plant response rating [3, 22]: 0; Crabgrass plant response rating [3, 23]: 0; Crabgrass plant response rating [3, 24]: 0; Giant foxtail plant response rating [4, 17]: 0; Giant foxtail plant response rating [4, 18]: 0; Giant foxtail plant response rating [4, 19]: 0; Plant response rating, Giant foxtail [4, 20]: 0; Plant response rating, Giant foxtail [4, 21]: 0; Giant foxtail plant response rating [4, 22]: 0; Giant foxtail plant response rating [4, 23]: 0; Giant foxtail plant response rating [4, 24]: 0; Morningglory plant response rating [5, 17]: 4; Morningglory plant response rating [5, 18]: 10; Morningglory plant response rating [5, 19]: 0; Plant response rating, Morningglory [5, 20]: 0; Plant response rating, Morningglory [5, 21]: 0; Morningglory plant response rating [5, 22]: 0; Morningglory plant response rating [5, 23]: 7; Morningglory plant response rating [5, 24]: 10; Redroot pigweed plant response rating [6, 17]: 0; Redroot pigweed plant response rating [6, 18]: 0; Redroot pigweed plant response rating [6, 19]: 0; Plant response rating, Redroot pigweed [6, 20]: 0; Plant response rating, Redroot pigweed [6, 21]: 0; Redroot pigweed plant response rating [6, 22]: 0; Redroot pigweed plant response rating [6, 23]: 0; Redroot pigweed plant response rating [6, 24]: 0; Rape plant response rating [7, 17]: 0; Rape plant response rating [7, 18]: 0; Rape plant response rating [7, 19]: 0; Plant response rating, Rape [7, 20]: 0; Plant response rating, Rape [7, 21]: 0; Rape plant response rating [7, 22]: 0; Rape plant response rating [7, 23]: 0; Rape plant response rating [7, 24]: 0; Soybean plant response rating [8, 17]: 0; Soybean plant response rating [8, 18]: 0; Soybean plant response rating [8, 19]: 0; Plant response rating, Soybean [8, 20]: 0; Plant response rating, Soybean [8, 21]: 0; Soybean plant response rating [8, 22]: 0; Soybean plant response rating [8, 23]: 0; Soybean plant response rating [8, 24]: 1; Sugarbeets plant response rating [9, 17]: 0; Sugarbeets plant response rating [9, 18]: 0; Sugarbeets plant response rating [9, 19]: 0; Plant response rating, Sugarbeets [9, 20]: 0; Plant response rating, Sugarbeets [9, 21]: 0; Sugarbeets plant response rating [9, 22]: 0; Sugarbeets plant response rating [9, 23]: 0; Sugarbeets plant response rating [9, 24]: 2; Velvetleaf plant response rating [10, 17]: 0; Velvetleaf plant response rating [10, 18]: 0; Velvetleaf plant response rating [10, 19]: 0; Plant response rating, Velvetleaf [10, 20]: 0; Plant response rating, Velvetleaf [10, 21]: 0; Velvetleaf plant response rating [10, 22]: 0; Velvetleaf plant response rating [10, 23]: 0; Velvetleaf plant response rating [10, 24]: 0; Wheat plant response rating [11, 17]: 0; Wheat plant response rating [11, 18]: 0; Wheat plant response rating [11, 19]: 0; Plant response rating, Wheat [11, 20]: 0; Plant response rating, Wheat [11, 21]: 0; Wheat plant response rating [11, 22]: 0; Wheat plant response rating [11, 23]: 0; Wheat plant response rating [11, 24]: 0; Wild oats plant response rating [12, 17]: 0; Wild oats plant response rating [12, 18]: 0; Wild oats plant response rating [12, 19]: 0; Plant response rating, Wild oats [12, 20]: 0; Plant response rating, Wild oats [12, 21]: 0; Wild oats plant response rating [12, 22]: 0; Wild oats plant response rating [12, 23]: 0; Wild oats plant response rating [12, 24]: 0; Nutsedge plant response rating [13, 17]: 0; Nutsedge plant response rating [13, 18]: 0; Nutsedge plant response rating [13, 19]: 0; Plant response rating, Nutsedge [13, 20]: 0; Plant response rating, Nutsedge [13, 21]: 0; Nutsedge plant response rating [13, 22]: 0; Nutsedge plant response rating [13, 23]: 0; Nutsedge plant response rating [13, 24]: 0; Rice plant response rating [14, 17]: 0; Rice plant response rating [14, 25]: 0; Rice plant response rating [14, 26]: 0; Rice plant response rating [14, 27]: 0; Ducksalad plant response rating [15, 17]: 0; Ducksalad plant response rating [15, 25]: 0; Ducksalad plant response rating [15, 26]: 0; Ducksalad plant response rating [15, 27]: 0; Barnyardgrass plant response rating [16, 17]: 0; Barnyardgrass plant response rating [16, 25]: 0; Barnyardgrass plant response rating [16, 26]: 0; Barnyardgrass plant response rating [16, 27]: 0

— US6737383B1, “Herbicidal oxadiazolidines” (priority 1999, dated 2004)
